Species on record: Rattus norvegicus
Test: DrugMatrix - Regimen: Daily Repeat
Format: toxicity, organism-based, Sprague-Dawley
Set-up: regimen Daily Repeat, gender Male, age 6-8 weeks
Conditions: in vivo, sc, route subcutaneous, […]; for ABSOLUTE BASOPHIL / ABSOLUTE EOSINOPHIL / ABSOLUTE LYMPHOCYTE / ABSOLUTE MONOCYTE / ABSOLUTE SEGMENTED NEUTROPHIL / BASOPHIL / EOSINOPHIL / ERYTHROCYTE COUNT / HEMATOCRIT / HEMOGLOBIN / LEUKOCYTE COUNT / LYMPHOCYTE / MEAN CORPUSCULAR HEMOGLOBIN / MEAN CORPUSCULAR HEMOGLOBIN CONCENTRATION / MEAN CORPUSCULAR VOLUME / MONOCYTE / NEUTROPHIL / NUCLEATED RED BLOOD CELLS / PLATELET COUNT: tissue Blood; for ALANINE AMINOTRANSFERASE / ALBUMIN / ALKALINE PHOSPHATASE / ASPARTATE AMINOTRANSFERASE / BLOOD UREA NITROGEN / CARBON DIOXIDE / CHLORIDE / CHOLESTEROL / CREATINE PHOSPHOKINASE / CREATININE / GLUCOSE / LACTATE DEHYDROGENASE / LIPASE / PHOSPHORUS / POTASSIUM / SODIUM / TOTAL BILIRUBIN / TOTAL PROTEIN / URIC ACID: tissue Plasma
[1] = 0 mg/kg, 72 h, dose level Control, time 3 day
[2] = 0 mg/kg, 120 h, dose level Control, time 5 day
[3] = 22 mg/kg, 72 h, dose level Low, time 3 day
[4] = 22 mg/kg, 120 h, dose level Low, time 5 day

O=C(O)c1ccccc1O [SALICYLIC ACID]
ABSOLUTE BASOPHIL [1]: 0 CELLS/uL | ABSOLUTE EOSINOPHIL [1]: 0 CELLS/uL | ABSOLUTE LYMPHOCYTE [1]: 10887 CELLS/uL | ABSOLUTE MONOCYTE [1]: 56 CELLS/uL | ABSOLUTE SEGMENTED NEUTROPHIL [1]: 1057 CELLS/uL | BASOPHIL [1]: 0% | EOSINOPHIL [1]: 0% | ERYTHROCYTE COUNT [1]: 5.31 x10E6/uL | HEMATOCRIT [1]: 33.78% | HEMOGLOBIN [1]: 13.4 G/DL | LEUKOCYTE COUNT [1]: 12 x10E3/uL | LYMPHOCYTE [1]: 91.17% | MEAN CORPUSCULAR HEMOGLOBIN [1]: 25.25 pg | MEAN CORPUSCULAR HEMOGLOBIN CONCENTRATION [1]: 39.65 G/DL | MEAN CORPUSCULAR VOLUME [1]: 63.65 fL | MONOCYTE [1]: 0.5% | NEUTROPHIL [1]: 8.33% | NUCLEATED RED BLOOD CELLS [1]: 0 /100WBC | PLATELET COUNT [1]: 1142 x10E3/uL | ALANINE AMINOTRANSFERASE [1]: 57.17 u/L | ALBUMIN [1]: 4.28 G/DL | ALKALINE PHOSPHATASE [1]: 425.83 u/L | ASPARTATE AMINOTRANSFERASE [1]: 93.83 u/L | BLOOD UREA NITROGEN [1]: 14.17 mg/dL | CARBON DIOXIDE [1]: 33.5 mmol/L | CHLORIDE [1]: 100 MEQ/L | CHOLESTEROL [1]: 70.33 mg/dL | CREATINE PHOSPHOKINASE [1]: 438.67 u/L | CREATININE [1]: 0.19 mg/dL | GLUCOSE [1]: 138.5 mg/dL | LACTATE DEHYDROGENASE [1]: 190.17 u/L | LIPASE [1]: 9.83 u/L | PHOSPHORUS [1]: 11.05 mg/dL | POTASSIUM [1]: 6.59 MEQ/L | SODIUM [1]: 143.58 MEQ/L | TOTAL BILIRUBIN [1]: 0.22 mg/dL | TOTAL PROTEIN [1]: 6.15 G/DL | URIC ACID [1]: 1.3 mg/dL | ABSOLUTE BASOPHIL [2]: 0 CELLS/uL | ABSOLUTE EOSINOPHIL [2]: 91.17 CELLS/uL | ABSOLUTE LYMPHOCYTE [2]: 11847.67 CELLS/uL | ABSOLUTE MONOCYTE [2]: 172.83 CELLS/uL | ABSOLUTE SEGMENTED NEUTROPHIL [2]: 1105 CELLS/uL | BASOPHIL [2]: 0% | EOSINOPHIL [2]: 0.67% | ERYTHROCYTE COUNT [2]: 5.35 x10E6/uL | HEMATOCRIT [2]: 33.65% | HEMOGLOBIN [2]: 13.42 G/DL | LEUKOCYTE COUNT [2]: 13.22 x10E3/uL | LYMPHOCYTE [2]: 89.83% | MEAN CORPUSCULAR HEMOGLOBIN [2]: 25.12 pg | MEAN CORPUSCULAR HEMOGLOBIN CONCENTRATION [2]: 39.9 G/DL | MEAN CORPUSCULAR VOLUME [2]: 63 fL | MONOCYTE [2]: 1.33% | NEUTROPHIL [2]: 8.17% | NUCLEATED RED BLOOD CELLS [2]: 0 /100WBC | PLATELET COUNT [2]: 1347.83 x10E3/uL | ALANINE AMINOTRANSFERASE [2]: 50 u/L | ALBUMIN [2]: 4.1 G/DL | ALKALINE PHOSPHATASE [2]: 329.17 u/L | ASPARTATE AMINOTRANSFERASE [2]: 77.17 u/L | BLOOD UREA NITROGEN [2]: 16.83 mg/dL | CARBON DIOXIDE [2]: 34.83 mmol/L | CHLORIDE [2]: 99.83 MEQ/L | CHOLESTEROL [2]: 75.67 mg/dL | CREATINE PHOSPHOKINASE [2]: 295.83 u/L | CREATININE [2]: 0.18 mg/dL | GLUCOSE [2]: 156.33 mg/dL | LACTATE DEHYDROGENASE [2]: 166.83 u/L | LIPASE [2]: 9.83 u/L | PHOSPHORUS [2]: 12.18 mg/dL | POTASSIUM [2]: 6.69 MEQ/L | SODIUM [2]: 143.97 MEQ/L | TOTAL BILIRUBIN [2]: 0.22 mg/dL | TOTAL PROTEIN [2]: 6.05 G/DL | URIC ACID [2]: 1.6 mg/dL | ABSOLUTE BASOPHIL [3]: 0 CELLS/uL | ABSOLUTE EOSINOPHIL [3]: 26.67 CELLS/uL | ABSOLUTE LYMPHOCYTE [3]: 6989.67 CELLS/uL | ABSOLUTE MONOCYTE [3]: 0 CELLS/uL | ABSOLUTE SEGMENTED NEUTROPHIL [3]: 550.33 CELLS/uL | BASOPHIL [3]: 0% | EOSINOPHIL [3]: 0.33% | ERYTHROCYTE COUNT [3]: 5.05 x10E6/uL | HEMATOCRIT [3]: 33.17% | HEMOGLOBIN [3]: 13.07 G/DL | LEUKOCYTE COUNT [3]: 7.57 x10E3/uL | LYMPHOCYTE [3]: 92.33% | MEAN CORPUSCULAR HEMOGLOBIN [3]: 25.9 pg | MEAN CORPUSCULAR HEMOGLOBIN CONCENTRATION [3]: 39.43 G/DL | MEAN CORPUSCULAR VOLUME [3]: 65.6 fL | MONOCYTE [3]: 0% | NEUTROPHIL [3]: 7.33% | NUCLEATED RED BLOOD CELLS [3]: 0 /100WBC | PLATELET COUNT [3]: 1158.33 x10E3/uL | ALANINE AMINOTRANSFERASE [3]: 58.33 u/L | ALBUMIN [3]: 4.43 G/DL | ALKALINE PHOSPHATASE [3]: 511.33 u/L | ASPARTATE AMINOTRANSFERASE [3]: 103 u/L | BLOOD UREA NITROGEN [3]: 13.33 mg/dL | CARBON DIOXIDE [3]: 32 mmol/L | CHLORIDE [3]: 102 MEQ/L | CHOLESTEROL [3]: 71 mg/dL | CREATINE PHOSPHOKINASE [3]: 208.67 u/L | CREATININE [3]: 0.19 mg/dL | GLUCOSE [3]: 141.33 mg/dL | LACTATE DEHYDROGENASE [3]: 161.67 u/L | LIPASE [3]: 10 u/L | PHOSPHORUS [3]: 12.97 mg/dL | POTASSIUM [3]: 6.87 MEQ/L | SODIUM [3]: 150.3 MEQ/L | TOTAL BILIRUBIN [3]: 0.2 mg/dL | TOTAL PROTEIN [3]: 6.27 G/DL | URIC ACID [3]: 0.83 mg/dL | ABSOLUTE BASOPHIL [4]: 0 CELLS/uL | ABSOLUTE EOSINOPHIL [4]: 207.33 CELLS/uL | ABSOLUTE LYMPHOCYTE [4]: 12679.33 CELLS/uL | ABSOLUTE MONOCYTE [4]: 80 CELLS/uL | ABSOLUTE SEGMENTED NEUTROPHIL [4]: 1400 CELLS/uL | BASOPHIL [4]: 0% | EOSINOPHIL [4]: 1.33% | ERYTHROCYTE COUNT [4]: 5.41 x10E6/uL | HEMATOCRIT [4]: 34.5% | HEMOGLOBIN [4]: 13.87 G/DL | LEUKOCYTE COUNT [4]: 14.37 x10E3/uL | LYMPHOCYTE [4]: 88% | MEAN CORPUSCULAR HEMOGLOBIN [4]: 25.6 pg | MEAN CORPUSCULAR HEMOGLOBIN CONCENTRATION [4]: 40.23 G/DL | MEAN CORPUSCULAR VOLUME [4]: 63.73 fL | MONOCYTE [4]: 0.67% | NEUTROPHIL [4]: 10% | NUCLEATED RED BLOOD CELLS [4]: 0 /100WBC | PLATELET COUNT [4]: 1310 x10E3/uL | ALANINE AMINOTRANSFERASE [4]: 52.67 u/L | ALBUMIN [4]: 4.17 G/DL | ALKALINE PHOSPHATASE [4]: 362.33 u/L | ASPARTATE AMINOTRANSFERASE [4]: 87.67 u/L | BLOOD UREA NITROGEN [4]: 16.33 mg/dL | CARBON DIOXIDE [4]: 30.33 mmol/L | CHLORIDE [4]: 105.67 MEQ/L | CHOLESTEROL [4]: 78.33 mg/dL | CREATINE PHOSPHOKINASE [4]: 263.33 u/L | CREATININE [4]: 0.18 mg/dL | GLUCOSE [4]: 153.33 mg/dL | LACTATE DEHYDROGENASE [4]: 272.67 u/L | LIPASE [4]: 9 u/L | PHOSPHORUS [4]: 13.37 mg/dL | POTASSIUM [4]: 7.11 MEQ/L | SODIUM [4]: 149.4 MEQ/L | TOTAL BILIRUBIN [4]: 0.2 mg/dL | TOTAL PROTEIN [4]: 6.07 G/DL | URIC ACID [4]: 1.5 mg/dL

Source: ChEMBL document CHEMBL3885881, “DrugMatrix”
